The species entered for assay [1] is Mus musculus. Description: Selectivity ratio of Ki for mouse kappa opioid receptor to Ki for mouse mu opioid receptor.
The target of assay [2] is Kappa-type opioid receptor (Mus musculus, UniProt P33534). Description: Displacement of [3H]-diprenorphine from mouse kappa opioid receptor expressed in CHO cells after 1.5 hrs. It is filed as cell-based. A general note: In a radioligand displacement assay an active substance lowers the binding of a labelled ligand.
Chain of Kappa-type opioid receptor (P33534 whole entry): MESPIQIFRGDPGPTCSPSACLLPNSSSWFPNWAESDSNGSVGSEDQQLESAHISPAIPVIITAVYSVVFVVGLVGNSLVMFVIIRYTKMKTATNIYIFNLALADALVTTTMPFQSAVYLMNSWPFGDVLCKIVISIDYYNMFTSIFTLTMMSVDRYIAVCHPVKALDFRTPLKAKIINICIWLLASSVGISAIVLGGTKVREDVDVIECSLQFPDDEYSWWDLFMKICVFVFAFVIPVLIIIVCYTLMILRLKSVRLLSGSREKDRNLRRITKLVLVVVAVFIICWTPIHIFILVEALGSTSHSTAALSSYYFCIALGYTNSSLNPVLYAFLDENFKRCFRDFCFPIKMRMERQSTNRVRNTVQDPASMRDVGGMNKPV
For assay [3], the target named is T1, Mu-type opioid receptor (Mus musculus, UniProt P42866). The assay can be described thus: Agonist activity at mouse mu opioid receptor expressed in CHO cells assessed as stimulation of [35S]-GTPgammaS binding after 1.5 hrs. The assay is classed as functional, cell-based.
T1 sequence (P42866 whole entry): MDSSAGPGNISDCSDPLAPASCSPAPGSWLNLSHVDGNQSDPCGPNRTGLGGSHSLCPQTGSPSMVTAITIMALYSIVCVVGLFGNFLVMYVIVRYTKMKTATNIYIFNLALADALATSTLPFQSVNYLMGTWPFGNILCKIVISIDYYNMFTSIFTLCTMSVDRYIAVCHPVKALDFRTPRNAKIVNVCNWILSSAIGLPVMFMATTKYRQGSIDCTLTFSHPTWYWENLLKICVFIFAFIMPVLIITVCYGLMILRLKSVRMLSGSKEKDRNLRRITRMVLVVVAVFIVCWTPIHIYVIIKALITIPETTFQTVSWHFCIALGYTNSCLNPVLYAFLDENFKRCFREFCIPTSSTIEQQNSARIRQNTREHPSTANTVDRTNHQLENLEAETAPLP
Assay [4] deals with Mu-type opioid receptor (Mus musculus) (UniProt P42866). Description: Agonist activity at mouse mu opioid receptor expressed in CHO cells assessed as stimulation of [35S]-GTPgammaS binding after 1.5 hrs relative to DAMGO. The assay is classed as functional, cell-based. (GTPγS is a poorly hydrolysed GTP analogue; its binding reports G protein activation.)
Chain of Mu-type opioid receptor (Mus musculus) (P42866 whole entry): as above
Assay [5] addresses T1, Mu-type opioid receptor. The assay can be described thus: Displacement of [3H]-naloxone from mouse mu opioid receptor expressed in CHO cells after 1.5 hrs. The assay is classed as cell-based.
Assay [6] addresses Delta-type opioid receptor (Mus musculus, UniProt P32300). The assay can be described thus: Displacement of [3H]-naltrindole from mouse delta opioid receptor expressed in CHO cells after 1.5 hrs. It is filed as cell-based.
The species entered for assay [7] is Mus musculus. The assay can be described thus: Selectivity ratio of Ki for mouse delta opioid receptor to Ki for mouse mu opioid receptor.

In general, Ki refers to the dissociation constant of the complex between target and ligand, obtained from inhibition or displacement. A higher Ki goes with weaker binding. A word on the EC50: it is the midpoint of the concentration-response curve. By Emax is commonly meant the size of the effect at its maximum, as opposed to the concentration needed.

Chain of Delta-type opioid receptor (P32300 whole entry): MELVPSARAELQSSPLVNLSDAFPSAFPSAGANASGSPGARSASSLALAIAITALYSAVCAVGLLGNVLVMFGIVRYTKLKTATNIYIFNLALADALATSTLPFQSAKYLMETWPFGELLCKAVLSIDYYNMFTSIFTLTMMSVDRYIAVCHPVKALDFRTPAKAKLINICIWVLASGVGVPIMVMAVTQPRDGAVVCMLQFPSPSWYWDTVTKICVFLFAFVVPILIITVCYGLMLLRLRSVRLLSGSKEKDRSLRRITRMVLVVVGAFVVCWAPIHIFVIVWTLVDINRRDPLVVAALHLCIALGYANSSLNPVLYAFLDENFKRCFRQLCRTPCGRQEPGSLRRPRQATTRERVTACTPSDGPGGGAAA

Take `CN1Cc2ccccc2C[C@H]1C(=O)N[C@H]1CC[C@@]2(O)[C@H]3Cc4ccc(O)c5c4[C@@]2(CCN3CC2CC2)[C@H]1O5`: the Ratio Ki in assay [1] is 2.3; in assay [7], 3.2. In addition, the Ki in assay [2] came to 6.76 nM; in assay [5], 2.9 nM; in assay [6], 9.3 nM. In assay [3], the EC50 is 19.4 nM. In assay [4], the Emax was found to be 24.8%.

Turning to `O=C(CCc1cc2ccccc2cn1)N[C@H]1CC[C@@]2(O)[C@H]3Cc4ccc(O)c5c4[C@@]2(CCN3CC2CC2)[C@H]1O5`, the figures for the Ratio Ki in assay [1] and in assay [7] were 2.4 and 12, respectively. Moreover, the Ki in assay [2] stood at 1.61 nM; in assay [5] it was 0.68 nM; in assay [6], 8.4 nM. Moreover, in assay [3], the EC50 was found to be 1.14 nM. The Emax in assay [4] was 27.4%.

Regarding `N#Cc1nc(C(=O)N[C@H]2CC[C@@]3(O)[C@H]4Cc5ccc(O)c6c5[C@@]3(CCN4CC3CC3)[C@H]2O6)cc2ccccc12`, the Ratio Ki in assay [1] amounted to 10; in assay [7] it was 131. The values for the Ki in assay [2], in assay [5] and in assay [6] were 10.1 nM, 0.99 nM and 130 nM, respectively. For the same molecule, the EC50 in assay [3] worked out at 3.32 nM. Moreover, in assay [4], the Emax was determined as 37.5%.

As for `O=C(CNC(=O)c1cc2ccccc2cn1)N[C@H]1CC[C@@]2(O)[C@H]3Cc4ccc(O)c5c4[C@@]2(CCN3CC2CC2)[C@H]1O5`, the Ratio Ki in assay [1] turned out to be 0.2; in assay [7], 3.4. Also, the Ki in assay [2] is 0.61 nM; in assay [5], 2.7 nM; in assay [6] it was 9.2 nM. Besides, in assay [3], the EC50 was determined as 14.1 nM. Besides, the Emax in assay [4] was 13.9%.

Turning to `COc1c(C(=O)N[C@H]2CC[C@@]3(O)[C@H]4Cc5ccc(O)c6c5[C@@]3(CCN4CC3CC3)[C@H]2O6)nc(Cl)c2ccccc12`, the figures for the Ki in assay [2] and in assay [6] were 22.2 nM and 33.9 nM, respectively. Further, the EC50 in assay [3] worked out at 1.74 nM.

In the case of `O=C(N[C@H]1CC[C@@]2(O)[C@H]3Cc4ccc(O)c5c4[C@@]2(CCN3CC2CC2)[C@H]1O5)c1ncc2ccccc2c1O`, the Ki in assay [2] was 4 nM; in assay [5] it was 0.45 nM; in assay [6] it was 32.8 nM. For the same molecule, the EC50 in assay [3] was found to be 1.06 nM. In addition, in assay [4], the Emax came to 20.5%.

In the case of `O=C(N[C@H]1CC[C@@]2(O)[C@H]3Cc4ccc(O)c5c4[C@@]2(CCN3CC2CC2)[C@H]1O5)c1nc(Cl)c2ccccc2c1O`, the Ratio Ki is 25 in assay [1] and 24 in assay [7]. Besides, the inhibition constant (Ki) in assay [2] amounted to 18.3 nM; in assay [5] it was 0.73 nM; in assay [6], 17.4 nM. Further, the EC50 in assay [3] came out at 1.23 nM. For the same molecule, the Emax in assay [4] worked out at 19.8%.

For `O=C(N[C@H]1CC[C@@]2(O)[C@H]3Cc4ccc(O)c5c4[C@@]2(CCN3CC2CC2)[C@H]1O5)c1cc2ccccc2cn1`, affinity in assay [6] was put at a Ki of 162 nM.

Regarding `Cc1nc(C(=O)N[C@H]2CC[C@@]3(O)[C@H]4Cc5ccc(O)c6c5[C@@]3(CCN4CC3CC3)[C@H]2O6)cc2ccccc12`, the values for the Ki in assay [2], in assay [5] and in assay [6] were 29.1 nM, 2.1 nM and 117 nM, respectively. Also, the EC50 in assay [3] stood at 7.2 nM. In assay [4], the Emax came out at 22.2%.

Turning to `O=C(Cc1cc2ccccc2cn1)N[C@H]1CC[C@@]2(O)[C@H]3Cc4ccc(O)c5c4[C@@]2(CCN3CC2CC2)[C@H]1O5`, the Ratio Ki in assay [1] stood at 0.9; in assay [7] it was 10. Also, the Ki in assay [2] came out at 1.1 nM; in assay [5] it was 1.2 nM; in assay [6], 12.5 nM. Besides, in assay [3], the EC50 was 4.6 nM. The maximum response (Emax) in assay [4] stood at 18.6%.

For the molecule `O=C(N[C@H]1CC[C@@]2(O)[C@H]3Cc4ccc(O)c5c4[C@@]2(CCN3CC2CC2)[C@H]1O5)c1cc2ccccc2c(Cl)n1`, the values for the Ki in assay [2] and in assay [6] were 10.8 nM and 79.8 nM, respectively.

As to `O=C(N[C@H]1CC[C@@]2(O)[C@H]3Cc4ccc(O)c5c4[C@@]2(CCN3CC2CC2)[C@H]1O5)c1ncc2ccccc2n1`, the Ratio Ki in assay [1] came to 4.6; in assay [7], 71. For the same molecule, the inhibitory constant (Ki) in assay [2] amounted to 5.1 nM; in assay [5] it was 1.11 nM; in assay [6], 78.8 nM. For the same molecule, in assay [3], the concentration giving a half-maximal response (EC50) turned out to be 6 nM. In addition, the Emax in assay [4] was determined as 21.6%.

Source of the values: ChEMBL document CHEMBL2417375 (Bioorg Med Chem Lett, 2013).
